The results in this text go back to US5763492A, “Methods for effecting memory enhancement mediated by non-steroidal sulfatase inhibitors” (Duguesne University of the Holy Ghost, priority 1996, dated 1998).

Common to all, as to format: in vivo, rat
Experiment [1] deals with scopolamine-induced amnesia in rats. Put plainly: Passive avoidance test (Gemini Avoidance System), crossover latency, scopolamine-induced amnesia.
A further experiment has as its system liver sulfatase. Put plainly: Liver sulfatase activity after IP dosing of rats. To be noted: for % Inhibition of liver sulfatase / Liver Sulfatase Activity: 30 mg/kg IP; for Liver Sulfatase Activity: mean ± SEM, P<0.01 vs control, corn oil control 164.10 ± 2.5. On the procedure: (§1) DU-14 was tested for its sulfatase inhibition in rats. 30 mg/kg of the compound was administered to rats IP for 15 days. Sulfatase inhibition was measured by the sulfatase activity in ng E1 S/μg protein/hr in the liver and brain as determined by methods known in the art. The results are presented below in Tables 1 and 2.

The next experiment relates to brain sulfatase. The experiment in a line: Brain sulfatase activity after IP dosing of rats. To be noted: 30 mg/kg IP; for Brain Sulfatase Activity: mean ± SEM, P<0.01 vs control, corn oil control 3.24 ± 0.32. On the procedure:
as §1

Each structure is given as a SMILES string. Several values for one entry are separate records, joined by “and”; a condition that tells them apart may be missing. Identical values can stand only once. Counter-ions that a name gives are not always drawn.

Turning to `C[C@]12CC[C@H](OS(=O)(=O)O)CC1=CC[C@@H]1[C@@H]2CC[C@]2(C)C(=O)CC[C@@H]12` [DHEAS, dehydroepiandrosterone sulfate, reference compound], the maximum crossover latency in experiment [1] (DHEAS 20 mg/Kg IP one hour before acquisition trial, scopolamine 1 mg/Kg IP 30 minutes before) is 262.5 ± 84.6 s. The “reversal of scopolamine-induced amnesia” value in experiment [1] (DHEAS 5-70 mg/kg IP one hour before acquisition trial, bell shaped dose response curve) is given as “significant (p≤0.05), reversal of scopolamine-induced amnesia”.

`CCCCCCCCCCCCCC(=O)NCCc1ccc(OS(N)(=O)=O)cc1` [DU-14]: the “% Inhibition of liver sulfatase” value was 95.2% in the experiment on liver sulfatase (1 Day); 97.6% and ~98% in the experiment with liver sulfatase (15 Days, 30 mg/kg). In addition, the figures for the “Liver Sulfatase Activity” value in the experiment with liver sulfatase (1 Day) and with liver sulfatase (15 Days) were 7.85 ± 0.65 ng E1 S/μg protein/hr and 4.01 ± 0.23 ng E1 S/μg protein/hr, respectively. Further, the “liver sulfatase after only 1 day” value in the experiment with liver sulfatase (1 day, from about 164) was “about 8”. Also, the “% Inhibition of brain sulfatase” value in the experiment on brain sulfatase (1 Day) is listed as 14.8%. The “Brain Sulfatase Activity” value in the experiment with brain sulfatase (1 Day) is recorded as 2.76 ± 0.27 pg E1 S/μg protein/hr; in the experiment on brain sulfatase (15 Days), 0.48 ± 0.10 pg E1 S/μg protein/hr. The crossover latency is listed as 278.7±88.1 in experiment [1] (DU-14 alone 30 mg/Kg IP daily for 15 days before acquisition trial, scopolamine) and “failed to increase crossover latency” in experiment [1] (DU-14 alone, single dose 30 mg/Kg IP four hours before acquisition trial). For the same molecule, the “reversal of scopolamine-induced amnesia” value in experiment [1] (DU-14 alone daily for 15 days, 30 mg/Kg IP) is reported as “significant (p≤0.05) reversal of scopolamine-induced amnesia”. Further, the “crossover latency, overall conclusion” value in experiment [1] (summary of Example III) is “significant increase in crossover latency”.
